Experimental data as given in patent US10077241B2 (Janssen Pharmaceutica NV, priority 2014, dated 2018).
Counter-ions that a name gives are not always drawn.

Tests used:
[1] = biological target: T1, TGR5 (STC1 cell line) (Mus musculus, UniProt Q80SS6); assay: STC1 cAMP Agonist EC50 Determination
T1 sequence (Q80SS6 1-329): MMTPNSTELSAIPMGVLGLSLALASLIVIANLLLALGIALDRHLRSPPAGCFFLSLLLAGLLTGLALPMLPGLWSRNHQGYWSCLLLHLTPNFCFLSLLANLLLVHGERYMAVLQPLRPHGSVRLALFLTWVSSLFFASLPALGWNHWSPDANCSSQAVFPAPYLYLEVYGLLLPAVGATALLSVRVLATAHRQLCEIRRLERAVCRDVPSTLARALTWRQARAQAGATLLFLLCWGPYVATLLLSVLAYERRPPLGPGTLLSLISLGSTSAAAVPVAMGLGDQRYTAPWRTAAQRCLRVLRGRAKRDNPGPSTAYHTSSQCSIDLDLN
Method: Cell stocks were maintained and grown in a sub-confluent state using standard cell culture procedures. The day before the experiment, the cells were harvested with non-enzymatic cell dissociation buffer and resuspended in complete growth media at 4E5 c/ml. […] The seeded plates were incubated overnight at 37° C.
On the day of the experiment, Assay Buffer containing: HBSS with Ca^2+and Mg^2+; 5 μM HEPES; 0.1% BSA; and, 0.5 μM IBMX was prepared. The growth medium was washed from the cell plates and replaced with 20 μL of Assay Buffer. […] The reaction was stopped by the addition of 20 μL 0.1% Formic Acid to all wells. Sixty minutes later 30 μL 3 M deuterated AMP was added to all wells (as a control for volume addition to the mass spec). Plates were mixed on a plate shaker for 1 min and centrifugated (5 min 3000 RPMs no brakes).
Plates were run on a 4000 QTrap triple-quadrapole Mass spectrometer in positive ion mode coupled with a Biocius RapidFire 300is. […] Two ions (cAMP and deuterated AMP were measured using Multiple Reaction Monitoring (MRM) in positive ion mode and the area under the curve (AUC) was determined for each of the ions.
The data from the Mass Spec/Rapid Plate AUC for cAMP and deuterated AMP were imported to an Excel worksheet. A Normalized signal (NS) was generated for each well=(cAMP AUC for the well/deut AMP AUC for the well)*average deut AMP AUC for the plate). nM cAMP was calculated for each well from the cAMP standard curves located on each plate by first calculating the slope and deriving the intercept (b).
EC50 values were determined from a 4-point fit (Hill equation) of a single 11-point compound dosing.

[2] = biological target: T2, TGR5 (NCI-H716 cell line) (Homo sapiens, UniProt Q8TDU6); assay: NCI-H716 cAMP Agonist EC50 Determination
T2 sequence (Q8TDU6 1-330): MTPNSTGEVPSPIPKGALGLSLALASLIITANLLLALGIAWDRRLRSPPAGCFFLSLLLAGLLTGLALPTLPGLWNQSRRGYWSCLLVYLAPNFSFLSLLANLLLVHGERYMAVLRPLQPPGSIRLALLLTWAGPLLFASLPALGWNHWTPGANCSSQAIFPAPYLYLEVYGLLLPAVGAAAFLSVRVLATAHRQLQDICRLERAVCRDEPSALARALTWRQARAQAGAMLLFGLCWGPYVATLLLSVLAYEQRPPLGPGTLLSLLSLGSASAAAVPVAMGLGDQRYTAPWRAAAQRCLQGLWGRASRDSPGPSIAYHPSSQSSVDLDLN
Method: Cells were cultured in suspension using RPM containing: 10% HI FBS, and 1× Penn/Strep and were cryostored (1E7 cells/vial in 5% DMSO).
A Normalized signal (NS) is generated by the Envision for each well ((Read 1/Read 2)×10,000).
The data from the Envision were imported to an Excel worksheet. nM cAMP is calculated for each well from the cAMP standard curves located on each plate by first calculating the slope and deriving the intercept (b).
[formula] [formula] [formula] EC50 values were determined from a 4-point fit (Hill equation) of a single 11-point compound dosing.

Q: `COc1cc(C2CCCc3nc(SCc4c(F)ccc(OCCOCCOCCN(C)C)c4F)n(-c4ccc(F)cc4)c32)ccc1Cl` (centres unmarked) [Example 32, 7-(4-chloro-3-methoxyphenyl)-2-([[3-(2-[2-[2-(dimethylamino)ethoxy]ethoxy]ethoxy)-2,6-difluorophenyl]methyl]sulfanyl)-1-(4-fluorophenyl)-4,5,6,7-tetrahydro-1H-1,3-benzodiazole hydrochloride] was tested. Which EC50 [1] did it give?
A: 1.38 µM

Q: And the EC50 [2]?
A: 16.9 µM

Q: Which EC50 [1] does the source give for `COc1cc(C2CCCc3nc(SCc4c(F)cc(S(=O)(=O)NS(C)(=O)=O)cc4F)n(-c4ccc(F)cc4)c32)ccc1Cl` (centres unmarked) [Example 21b, 4-((7-(4-chloro-3-methoxyphenyl)-1-(4-fluorophenyl)-4,5,6,7-tetrahydro-1H-benzo[d]imidazol-2-ylthio)methyl)-3,5-difluoro-N-(methylsulfonyl)benzenesulfonamide] here?
A: 8.12 µM

Q: What about the EC50 [2] of the same molecule?
A: > 50 µM

Q: How did the EC50 [1] turn out when `C/N=C(\N)NCCCc1cc(F)c(CSc2nc3c(n2-c2ccc(F)cc2)C(c2ccc(Cl)c(OC)c2)CCC3)c(F)c1` (centres unmarked) [Example 39a, (E)-1-[3-[4-([[7-(4-chloro-3-methoxyphenyl)-1-(4-fluorophenyl)-4,5,6,7-tetrahydro-1H-1,3-benzodiazol-2-yl]sulfanyl]methyl)-3,5-difluorophenyl]propyl]-2-methylguanidine hydrochloride] was run?
A: 0.36 µM

Q: What about the EC50 [2] of the same molecule?
A: > 50 µM

Q: `COc1cc(C2(C)CCCc3nc(SCc4c(F)cc(C(=O)O)cc4F)n(-c4ccc(F)cc4)c32)ccc1F` (centres unmarked) [Example 120, 3,5-difluoro-4-(((7-(4-fluoro-3-methoxyphenyl)-1-(4-fluorophenyl)-7-methyl-4,5,6,7-tetrahydro-1H-benzo[d]imidazol-2-yl)thio)methyl)benzoic acid] was tested. Which EC50 [1] did it give?
A: 1.18 µM

Q: What about the EC50 [2] of the same molecule?
A: > 50 µM

Q: For `COc1cc(C2CCCc3nc(SCc4c(F)cc(CC/C=N/NC(=N)N)cc4F)n(-c4ccc(F)cc4)c32)ccc1Cl` (centres unmarked) [Example 47, (E)-2-(3-(4-((7-(4-chloro-3-methoxyphenyl)-1-(4-fluorophenyl)-4,5,6,7-tetrahydro-1H-benzo[d]imidazol-2-ylthio)methyl)-3,5-difluorophenyl)propylidene) hydrazinecarboximidamide hydrochloride], which EC50 [1] is on record?
A: 0.37 µM

Q: And the EC50 [2]?
A: 47.3 µM

Q: Which EC50 [1] does the source give for `C=C1COC(c2ccc(OC)c(OC)c2)c2c1nc(SCc1c(F)cccc1Cl)n2-c1ccc(F)cc1` (centres unmarked) [Example 136, 2-((2-chloro-6-fluorobenzyl)thio)-4-(3,4-dimethoxyphenyl)-3-(4-fluorophenyl)-7-methylene-3,4,6,7-tetrahydropyrano[3,4-d]imidazole] here?
A: 1.53 µM

Q: And the EC50 [2]?
A: > 50 µM

Q: Which results are given for `COc1cc(C2(C)CCCc3nc(SCc4c(F)cc(C(=O)O)cc4F)n(-c4ccc(F)cc4)c32)ccc1Cl` (centres unmarked) [Example 81, 4-((7-(4-chloro-3-methoxyphenyl)-1-(4-fluorophenyl)-4,5,6,7-tetrahydro-7-methyl-1H-benzo[d]imidazol-2-ylthio)methyl)-3,5-difluorobenzoic acid trifluoroacetic acid]?
A: EC50 [1]: 1.75 µM; EC50 [2]: > 50 µM

Q: Which results are given for `COc1cc(C2(C)CCCc3nc(SCc4ccncc4)n(-c4ccc(F)cc4)c32)ccc1Cl` (centres unmarked) [Example 88]?
A: EC50 [1]: 4.78 µM; EC50 [2]: > 50 µM

Q: With `COc1cc(C2CCCc3nc(SCc4c(F)cc(CCCN(C)C)cc4F)n(-c4ccc(F)cc4)c32)ccc1Cl` (centres unmarked) [Example 39b, 3-(4-((7-(4-chloro-3-methoxyphenyl)-1-(4-fluorophenyl)-4,5,6,7-tetrahydro-1H-benzo[d]imidazol-2-ylthio)methyl)-3,5-difluorophenyl)-N,N-dimethylpropan-1-amine trifluoroacetic acid] as the molecule, how does the EC50 [1] read?
A: 16.3 µM

Q: And the EC50 [2]?
A: > 50 µM

Q: Which EC50 [1] does the source give for `COc1cc(C2CCCc3nc(SCc4c(F)cc(CC5SC(=O)NC5=O)cc4F)n(-c4ccc(F)cc4)c32)ccc1Cl` (centres unmarked) [Example 38, 5-(4-((7-(4-chloro-3-methoxyphenyl)-1-(4-fluorophenyl)-4,5,6,7-tetrahydro-1H-benzo[d]imidazol-2-ylthio)methyl)-3,5-difluorobenzyl)thiazolidine-2,4-dione trifluoroacetic acid] here?
A: 1.25 µM

Q: What about the EC50 [2] of the same molecule?
A: > 50 µM
